Measurements as given in patent publication US9458106B2, “Phenyl-pyridine/pyrazine amides for the treatment of cancer” (Hoffmann-La Roche Inc., priority 2013, dated 2016).

Molecular target: T1, CDK8/Cyclin C (Homo sapiens, UniProt P49336)
T1 construct: purchased Invitrogen PV4402
Assay: CDK8/Cyclin C LANCE TR-FRET kinase assay
Type: biochemical
Conditions: CDK8/Cyclin C 10 nM, ATP 24 μM, Ulight-GS peptide 80 nM, 37° C. 30 mins
From the text: CDK8/Cyclin C LANCE TR-FRET Kinase Assay
The biological activity of the compounds of the invention can be determined using the assay described below.
CDK8/Cyclin C protein was obtained from Invitrogen, cat #PV4402. ULight-Glycogen Synthase (Ulight-GS) peptide with sequence PASVPPSPSLSRHSSPHQ(pS)ED, and Europium-anti-phospho Glycogen Synthase (Ser641) [Eu-anti-P-GS (Ser641)] were obtained from Perkin Elmer, cat #TRF0131-M and cat #TRF0220. Adenosine-5′-triphosphate (ATP) was obtained from Invitrogen, cat #PV3227.
A mixture of (1) a compound of formula I, (2) substrate [Ulight-GS peptide (80 nM) and ATP (24 μM)], and (3) CDK8/Cyclin C (10 nM) in reaction buffer (50 mM Hepes, pH7.0, 10 mM MgCl2, 1 mM EGTA, 0.2 mg/mL BSA, 0.8 mM DTT) were incubated at 37° C. for 30 mins. Then, [Eu-anti-P-GS (Ser641)] (1.5 nM) was added. Following incubation at RT for 30 mins, the TR-FRET signals were detected using Envision reader (Ex 340 nm, Em 615 nm and 665 nm) from Perkin Elmer. The reactivity in percentage of inhibition or dose response was analyzed with GraphPad Prism 5 (GraphPad Software).

T1 sequence (P49336 whole entry): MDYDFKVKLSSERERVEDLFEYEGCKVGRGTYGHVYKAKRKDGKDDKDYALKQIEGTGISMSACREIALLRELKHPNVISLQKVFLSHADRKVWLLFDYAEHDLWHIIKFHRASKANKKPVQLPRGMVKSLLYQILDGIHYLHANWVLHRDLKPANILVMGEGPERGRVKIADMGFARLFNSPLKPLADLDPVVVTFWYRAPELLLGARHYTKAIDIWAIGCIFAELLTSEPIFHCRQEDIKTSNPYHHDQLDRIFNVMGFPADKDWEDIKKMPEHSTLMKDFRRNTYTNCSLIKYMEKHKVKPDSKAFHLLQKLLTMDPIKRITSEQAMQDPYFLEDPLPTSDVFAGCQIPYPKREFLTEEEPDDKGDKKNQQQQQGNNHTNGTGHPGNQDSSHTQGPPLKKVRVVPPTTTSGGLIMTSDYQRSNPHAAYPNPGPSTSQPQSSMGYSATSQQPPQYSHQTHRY
T1 sequence (P24863 whole entry partner): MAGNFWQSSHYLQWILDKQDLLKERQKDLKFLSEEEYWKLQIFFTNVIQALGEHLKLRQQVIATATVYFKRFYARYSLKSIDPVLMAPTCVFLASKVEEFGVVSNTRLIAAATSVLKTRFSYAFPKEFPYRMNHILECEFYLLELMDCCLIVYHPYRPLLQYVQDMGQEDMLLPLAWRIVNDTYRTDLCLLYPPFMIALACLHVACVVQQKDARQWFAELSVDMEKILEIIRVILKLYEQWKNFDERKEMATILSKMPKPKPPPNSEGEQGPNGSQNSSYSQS

| Structure (SMILES) | IC50 |
| --- | --- |
| NC(=O)C(Nc1cncc(-c2cc(Cl)ccc2F)c1)c1ccc(Cl)cc1 (centres unmarked) [Example 20, 2-[5-(5-Chloro-2-fluoro-phenyl)-pyridin-3-ylamino]-2-(4-chloro-phenyl)-acetamide] | 1080 nM |
| NC(=O)C(Nc1cncc(-c2ccc(F)c(Cl)c2)c1)c1ccccc1 (centres unmarked) [Example 8, 2-[5-(3-Chloro-4-fluoro-phenyl)-pyridin-3-ylamino]-2-phenyl-acetamide] | 2340 nM |
| CS(=O)(=O)NC(=O)C(Nc1cncc(-c2cc(Cl)ccc2F)c1)c1ccccc1 (centres unmarked) [Example 22, N-{2-[5-(5-Chloro-2-fluoro-phenyl)-pyridin-3-ylamino]-2-phenyl-acetyl}-methanesulfonamide] | 7740 nM |
| NC(=O)C(Nc1cncc(-c2cc(Cl)c(F)cc2F)c1)c1ccccc1 (centres unmarked) [Example 23, 2-[5-(5-Chloro-2,4-difluoro-phenyl)-pyridin-3-ylamino]-2-phenyl-acetamide] | 721 nM |
| COc1cccc(-c2cncc(NC(C(N)=O)c3ccccc3)n2)c1 (centres unmarked) [Example 32, 2-[6-(3-Methoxy-phenyl)-pyrazin-2-ylamino]-2-phenyl-acetamide] | 430 nM |
| CCOc1ccc(F)c(-c2cncc(NC(C(N)=O)c3ccccc3)c2)c1 (centres unmarked) [Example 7, 2-[5-(5-Ethoxy-2-fluoro-phenyl)-pyridin-3-ylamino]-2-phenyl-acetamide] | 1100 nM |
| NC(=O)[C@@H](Nc1cncc(-c2cc(Cl)ccc2F)n1)c1ccccc1 [Example 31, (S)-2-[6-(5-Chloro-2-fluoro-phenyl)-pyrazin-2-ylamino]-2-phenyl-acetamide] | 828 nM |
| NC(=O)C(Nc1cncc(-c2cc(Cl)ccc2F)c1)c1ccccn1 (centres unmarked) [Example 24, 2-[5-(5-Chloro-2-fluoro-phenyl)-pyridin-3-ylamino]-2-pyridin-2-yl-acetamide] | 2110 nM |
| COc1cc(-c2cncc(NC(C(N)=O)c3ccccc3)c2)c(F)cn1 (centres unmarked) [Example 9, 2-(5′-Fluoro-2′-methoxy-[3,4′]bipyridinyl-5-ylamino)-2-phenyl-acetamide] | 1150 nM |
| Cc1cccc(C(Nc2cncc(-c3cc(Cl)ccc3F)c2)C(N)=O)c1 (centres unmarked) [Example 13, 2-[5-(5-Chloro-2-fluoro-phenyl)-pyridin-3-ylamino]-2-m-tolyl-acetamide] | 566 nM |
| Cc1ccc(C(Nc2cncc(-c3cc(Cl)ccc3F)c2)C(N)=O)cc1 (centres unmarked) [Example 18, 2-[5-(5-Chloro-2-fluoro-phenyl)-pyridin-3-ylamino]-2-p-tolyl-acetamide] | 240 nM |
| NC(=O)C(Nc1cncc(-c2cc(Cl)ccc2F)c1)c1cccc(Cl)c1 (centres unmarked) [Example 19, 2-[5-(5-Chloro-2-fluoro-phenyl)-pyridin-3-ylamino]-2-(3-chloro-phenyl)-acetamide] | 432 nM |
| NC(=O)[C@@H](Nc1cncc(-c2ccc(O)c(Cl)c2)c1)c1ccccc1 [Example 4, (S)-2-[5-(3-Chloro-4-hydroxy-phenyl)-pyridin-3-ylamino]-2-phenyl-acetamide] | 471 nM |
| COc1cc(-c2cncc(NC(C(N)=O)c3ccccc3)c2)ccn1 (centres unmarked) [Example 6, 2-(2′-Methoxy-[3,4′]bipyridinyl-5-ylamino)-2-phenyl-acetamide] | 2170 nM |
| NC(=O)C(Nc1cncc(-c2cncc(Cl)c2)c1)c1ccccc1 (centres unmarked) [Example 10, 2-(5′-Chloro-[3,3′]bipyridinyl-5-ylamino)-2-phenyl-acetamide] | 1390 nM |
| NC(=O)C(Nc1cncc(-c2cc(Cl)ccc2F)n1)c1ccccc1 (centres unmarked) [Example 29, 2-[6-(5-Chloro-2-fluoro-phenyl)-pyrazin-2-ylamino]-2-phenyl-acetamide] | 123 nM |
| COc1ccc(F)c(-c2cncc(NC(C(N)=O)c3ccccc3)c2)c1 (centres unmarked) [Example 16, 2-[5-(2-Fluoro-5-methoxy-phenyl)-pyridin-3-ylamino]-2-phenyl-acetamide] | 264 nM |
| Cc1ccncc1-c1cncc(NC(C(N)=O)c2ccccc2)c1 (centres unmarked) [Example 5, 2-(4′-Methyl-[3,3′]bipyridinyl-5-ylamino)-2-phenyl-acetamide] | 133 nM |
| COc1cccc(-c2cncc(N[C@@H](C(N)=O)c3ccccc3)n2)c1 [Example 33, (R)-2-[6-(3-Methoxy-phenyl)-pyrazin-2-ylamino]-2-phenyl-acetamide] | 567 nM |

Now from value to compound:

| IC50 | Structure (SMILES) |
| --- | --- |
| 4.8 nM | NC(=O)C(Nc1cncc(-c2ccc(O)c(Cl)c2)n1)c1ccccc1 (centres unmarked) [Example 26, 2-[6-(3-Chloro-4-hydroxy-phenyl)-pyrazin-2-ylamino]-2-phenyl-acetamide] |
| 32.9 nM | NC(=O)[C@@H](Nc1cncc(-c2ccc(O)c(Cl)c2)n1)c1ccccc1 [Example 28, (S)-2-[6-(3-Chloro-4-hydroxy-phenyl)-pyrazin-2-ylamino]-2-phenyl-acetamide] |
| 54.7 nM | NC(=O)[C@H](Nc1cncc(-c2cc(Cl)ccc2F)n1)c1ccccc1 [Example 30, (R)-2-[6-(5-Chloro-2-fluoro-phenyl)-pyrazin-2-ylamino]-2-phenyl-aceamide] |
| 7.1 nM | NC(=O)[C@H](Nc1cncc(-c2ccc(O)c(Cl)c2)c1)c1ccccc1 [Example 3, (R)-2-[5-(3-Chloro-4-hydroxy-phenyl)-pyridin-3-ylamino]-2-phenyl-acetamide] |
| 91.7 nM | NC(=O)[C@H](Nc1cncc(-c2cc(Cl)ccc2F)c1)c1ccccc1 [Example 1, (R)-2-[5-(5-Chloro-2-fluoro-phenyl)-pyridin-3-ylamino]-2-phenyl-cetamide] |
| 123 nM | NC(=O)C(Nc1cncc(-c2cc(Cl)ccc2F)c1)c1cc(F)ccc1F (centres unmarked) [Example 15, 2-[5-(5-Chloro-2-fluoro-phenyl)-pyridin-3-ylamino]-2-(2,5-difluoro-phenyl)-acetamide] |
| 101 nM | COc1cccc(C(Nc2cncc(-c3cc(Cl)ccc3F)c2)C(N)=O)c1 (centres unmarked) [Example 21, 2-[5-(5-Chloro-2-fluoro-phenyl)-pyridin-3-ylamino]-2-(3-methoxy-phenyl)-acetamide] |
| 85.4 nM | NC(=O)C(Nc1cncc(-c2cc(Cl)ccc2F)c1)c1cccs1 (centres unmarked) [Example 25, 2-[5-(5-Chloro-2-fluoro-phenyl)-pyridin-3-ylamino]-2-thiophen-2-yl-acetamide] |
| 38.5 nM | NC(=O)C(Nc1cncc(-c2cc(Cl)ccc2F)c1)c1ccccc1F (centres unmarked) [Example 12, 2-[5-(5-Chloro-2-fluoro-phenyl)-pyridin-3-ylamino]-2-(2-fluoro-phenyl)-acetamide] |
| 54.2 nM | NC(=O)C(Nc1cncc(-c2cc(Cl)ccc2F)c1)c1ccsc1 (centres unmarked) [Example 17, 2-[5-(5-Chloro-2-fluoro-phenyl)-pyridin-3-ylamino]-2-thiophen-3-yl-acetamide] |
| 105 nM | NC(=O)C(Nc1cncc(-c2ccc(O)c(Cl)c2)c1)c1ccccc1 (centres unmarked) [Example 2, 2-[5-(3-Chloro-4-hydroxy-phenyl)-pyridin-3-ylamino]-2-phenyl-acetamide] |
| 2.8 nM | NC(=O)[C@H](Nc1cncc(-c2ccc(O)c(Cl)c2)n1)c1ccccc1 [Example 27, (R)-2-[6-(3-Chloro-4-hydroxy-phenyl)-pyrazin-2-ylamino]-2-phenyl-acetamide] |
| 35.9 nM | Cc1ccccc1C(Nc1cncc(-c2cc(Cl)ccc2F)c1)C(N)=O (centres unmarked) [Example 11, 2-[5-(5-Chloro-2-fluoro-phenyl)-pyridin-3-ylamino]-2-o-tolyl-acetamide] |
| 11 nM | NC(=O)C(Nc1cncc(-c2cc(Cl)ccc2F)c1)c1ccccc1Cl (centres unmarked) [Example 14, 2-[5-(5-Chloro-2-fluoro-phenyl)-pyridin-3-ylamino]-2-(2-chloro-phenyl)-acetamide] |

System: HCT116 (colorectal cancer)
Assay: In vitro cell proliferation assay (CCK-8), HCT116
Type: cell-based
Conditions: Homo sapiens, HCT-116, HCT116 cells, 72 hours
Procedure: (§1) In Vitro Cell Proliferation Assay
(§2) Cells were seeded on 96-well plates at 5×10^3 cells per well and precultured for 24 hours. The cells were treated with serial diluted compounds and cultured for 72 hours. Then all media was discarded and after that, 100 μL 1:10 (v/v) Cell Counting Kit-8 (CCK-8)-culture media solution was added to the wells. Plate was developed for 2 hrs in an incubator, and the absorbance was measured at 450 nm wavelengths with SpectraMAX190 (MDS, Sunnyvale, Calif.). The inhibition rate (IR) of the tested compounds was determined with following formula: IR (%)=(ODDMSO−ODcompound)/ODDMSO×100%. The concentration corresponding to 50% IR (IC50) was determined with plot curve of IR against tested compound concentrations with SoftMax Pro.

| Structure (SMILES) | IC50 |
| --- | --- |
| NC(=O)[C@H](Nc1cncc(-c2ccc(O)c(Cl)c2)c1)c1ccccc1 [Example 3, (R)-2-[5-(3-Chloro-4-hydroxy-phenyl)-pyridin-3-ylamino]-2-phenyl-acetamide] | 740 nM |
| NC(=O)[C@H](Nc1cncc(-c2cc(Cl)ccc2F)c1)c1ccccc1 [Example 1, (R)-2-[5-(5-Chloro-2-fluoro-phenyl)-pyridin-3-ylamino]-2-phenyl-cetamide] | 2610 nM |

System: DLD-1 (colorectal cancer)
Assay: In vitro cell proliferation assay (CCK-8), DLD-1
Type: cell-based
Conditions: Homo sapiens, DLD-1 cells, 72 hours
Procedure: as §1, §2

| Structure (SMILES) | IC50 |
| --- | --- |
| NC(=O)[C@H](Nc1cncc(-c2ccc(O)c(Cl)c2)c1)c1ccccc1 [Example 3, (R)-2-[5-(3-Chloro-4-hydroxy-phenyl)-pyridin-3-ylamino]-2-phenyl-acetamide] | 0.604 µM |

System: AGS (gastric cancer)
Assay: In vitro cell proliferation assay (CCK-8), AGS
Type: cell-based
Conditions: Homo sapiens, AGS cells, 72 hours
Procedure: as §1, §2

| Structure (SMILES) | IC50 |
| --- | --- |
| NC(=O)[C@H](Nc1cncc(-c2ccc(O)c(Cl)c2)c1)c1ccccc1 [Example 3, (R)-2-[5-(3-Chloro-4-hydroxy-phenyl)-pyridin-3-ylamino]-2-phenyl-acetamide] | 0.517 µM |
| NC(=O)[C@H](Nc1cncc(-c2cc(Cl)ccc2F)c1)c1ccccc1 [Example 1, (R)-2-[5-(5-Chloro-2-fluoro-phenyl)-pyridin-3-ylamino]-2-phenyl-cetamide] | 2.66 µM |
